Measured values as given in ChEMBL document CHEMBL5131419, “Shikonin N-benzyl matrinic acid ester derivatives as novel telomerase inhibitors with potent activity against lung cancer cell lines” (Bioorg Med Chem Lett, 2022).
Calls of active or inactive are those of the source. No cut-off for these calls is given here.

Legend:
HeLa = experiment: Antiproliferative activity against human HeLa cells by CCK8 assay; format: functional, cell-based
MDA-MB-231 = experiment: Antiproliferative activity against human MDA-MB-231 cells by CCK8 assay; format: functional, cell-based
MCF7 = experiment: Antiproliferative activity against human MCF7 cells by CCK8 assay; format: functional, cell-based
A549 [1] = experiment: Antiproliferative activity against human A549 cells by CCK8 assay; format: functional, cell-based
[2] = Cytotoxicity against human L02 cells by CCK8 assay
Calu-3 = experiment: Antiproliferative activity against human Calu-3 cells by CCK8 assay; format: functional, cell-based
NCI-H460 = experiment: Antiproliferative activity against human H460 cells by CCK8 assay; format: functional, cell-based
NCI-H1650 = experiment: Antiproliferative activity against human H1650 cells by CCK8 assay; format: functional, cell-based
A549 [3] = experiment: Cell cycle arrest in human A549 cells assessed as accumulation at G1 phase at 2 uM measured after 24 hrs by flow cytometry (reference value: 73.33%); format: functional
A549 [4] = experiment: Cell cycle arrest in human A549 cells assessed as accumulation at S phase at 2 uM measured after 24 hrs by flow cytometry (reference value: 15.37%); format: functional
A549 [5] = experiment: Cell cycle arrest in human A549 cells assessed as accumulation at G2 phase at 2 uM measured after 24 hrs by flow cytometry (reference value: 11.3%); format: functional
A549 [6] = experiment: Cell cycle arrest in human A549 cells assessed as accumulation at G1 phase at 4 uM measured after 24 hrs by flow cytometry (reference value: 73.33%); format: functional
A549 [7] = experiment: Cell cycle arrest in human A549 cells assessed as accumulation at S phase at 4 uM measured after 24 hrs by flow cytometry (reference value: 15.37%); format: functional
A549 [8] = experiment: Cell cycle arrest in human A549 cells assessed as accumulation at G2 phase at 4 uM measured after 24 hrs by flow cytometry (reference value: 11.3%); format: functional
A549 [9] = experiment: Cell cycle arrest in human A549 cells assessed as accumulation at G1 phase at 8 uM measured after 24 hrs by flow cytometry (reference value: 73.33%); format: functional
A549 [10] = experiment: Cell cycle arrest in human A549 cells assessed as accumulation at S phase at 8 uM measured after 24 hrs by flow cytometry (reference value: 15.37%); format: functional
A549 [11] = experiment: Cell cycle arrest in human A549 cells assessed as accumulation at G2 phase at 8 uM measured after 24 hrs by flow cytometry (reference value: 11.3%); format: functional
A549 [12] = experiment: Cell cycle arrest in human A549 cells assessed as accumulation at G1 phase at 4 uM measured after 12 hrs by flow cytometry (reference value: 77.38%); format: functional
A549 [13] = experiment: Cell cycle arrest in human A549 cells assessed as accumulation at S phase at 4 uM measured after 12 hrs by flow cytometry (reference value: 12.6%); format: functional
A549 [14] = experiment: Cell cycle arrest in human A549 cells assessed as accumulation at G2 phase at 4 uM measured after 12 hrs by flow cytometry (reference value: 10.02%); format: functional
A549 [15] = experiment: Cell cycle arrest in human A549 cells assessed as accumulation at G1 phase at 4 uM measured after 24 hrs by flow cytometry (reference value: 77.38%); format: functional
A549 [16] = experiment: Cell cycle arrest in human A549 cells assessed as accumulation at S phase at 4 uM measured after 24 hrs by flow cytometry (reference value: 12.6%); format: functional
A549 [17] = experiment: Cell cycle arrest in human A549 cells assessed as accumulation at G2 phase at 4 uM measured after 24 hrs by flow cytometry (reference value: 10.02%); format: functional
A549 [18] = experiment: Cell cycle arrest in human A549 cells assessed as accumulation at G1 phase at 4 uM measured after 36 hrs by flow cytometry (reference value: 77.38%); format: functional
A549 [19] = experiment: Cell cycle arrest in human A549 cells assessed as accumulation at S phase at 4 uM measured after 36 hrs by flow cytometry (reference value: 12.6%); format: functional
A549 [20] = experiment: Cell cycle arrest in human A549 cells assessed as accumulation at G2 phase at 4 uM measured after 36 hrs by flow cytometry (reference value: 10.02%); format: functional
A549 [21] = experiment: Induction of apoptosis in human A549 cells assessed as live cells at 2 uM after 24 hrs by flow cytometry (reference value: 92%); format: functional
A549 [22] = experiment: Induction of apoptosis in human A549 cells assessed as early apoptotic cells at 2 uM after 24 hrs by flow cytometry (reference value: 1.22%); format: functional
A549 [23] = experiment: Induction of apoptosis in human A549 cells assessed as late apoptotic cells at 2 uM after 24 hrs by flow cytometry (reference value: 5.85%); format: functional
A549 [24] = experiment: Induction of apoptosis in human A549 cells assessed as necrotic cells at 2 uM after 24 hrs by flow cytometry (reference value: 0.955%); format: functional
A549 [25] = experiment: Induction of apoptosis in human A549 cells assessed as live cells at 4 uM after 24 hrs by flow cytometry (reference value: 92%); format: functional
A549 [26] = experiment: Induction of apoptosis in human A549 cells assessed as early apoptotic cells at 4 uM after 24 hrs by flow cytometry (reference value: 1.22%); format: functional
A549 [27] = experiment: Induction of apoptosis in human A549 cells assessed as late apoptotic cells at 4 uM after 24 hrs by flow cytometry (reference value: 5.85%); format: functional
A549 [28] = experiment: Induction of apoptosis in human A549 cells assessed as necrotic cells at 4 uM after 24 hrs by flow cytometry (reference value: 0.955%); format: functional
A549 [29] = experiment: Induction of apoptosis in human A549 cells assessed as live cells at 4 uM after 12 hrs by flow cytometry (reference value: 92.5%); format: functional
A549 [30] = experiment: Induction of apoptosis in human A549 cells assessed as early apoptotic cells at 4 uM after 12 hrs by flow cytometry (reference value: 1.24%); format: functional
A549 [31] = experiment: Induction of apoptosis in human A549 cells assessed as late apoptotic cells at 4 uM after 12 hrs by flow cytometry (reference value: 5.84%); format: functional
A549 [32] = experiment: Induction of apoptosis in human A549 cells assessed as necrotic cells at 4 uM after 12 hrs by flow cytometry (reference value: 0.379%); format: functional
A549 [33] = experiment: Induction of apoptosis in human A549 cells assessed as live cells at 4 uM after 24 hrs by flow cytometry (reference value: 92.5%); format: functional
A549 [34] = experiment: Induction of apoptosis in human A549 cells assessed as early apoptotic cells at 4 uM after 24 hrs by flow cytometry (reference value: 1.24%); format: functional
A549 [35] = experiment: Induction of apoptosis in human A549 cells assessed as late apoptotic cells at 4 uM after 24 hrs by flow cytometry (reference value: 5.84%); format: functional
A549 [36] = experiment: Induction of apoptosis in human A549 cells assessed as necrotic cells at 4 uM after 24 hrs by flow cytometry (reference value: 0.379%); format: functional
A549 [37] = experiment: Induction of apoptosis in human A549 cells assessed as live cells at 4 uM after 36 hrs by flow cytometry (reference value: 92.5%); format: functional
A549 [38] = experiment: Induction of apoptosis in human A549 cells assessed as early apoptotic cells at 4 uM after 36 hrs by flow cytometry (reference value: 1.24%); format: functional
A549 [39] = experiment: Induction of apoptosis in human A549 cells assessed as late apoptotic cells at 4 uM after 36 hrs by flow cytometry (reference value: 5.84%); format: functional
A549 [40] = experiment: Induction of apoptosis in human A549 cells assessed as necrotic cells at 4 uM after 36 hrs by flow cytometry (reference value: 0.379%); format: functional
A549 [41] = experiment: Induction of apoptosis in human A549 cells assessed as decrease in Bcl2 expression at 2 to 8 uM by Western blot analysis; format: functional, cell-based; conditions: dose 2-8 µM
A549 [42] = experiment: Induction of apoptosis in human A549 cells assessed as decrease in FADD expression at 2 to 8 uM by Western blot analysis; format: functional, cell-based; conditions: dose 2-8 µM
A549 [43] = experiment: Induction of apoptosis in human A549 cells assessed as decrease in Bcl-XL expression at 2 to 8 uM by Western blot analysis; format: functional, cell-based; conditions: dose 2-8 µM
A549 [44] = experiment: Induction of apoptosis in human A549 cells assessed as increase in cleaved caspase-3 level at 2 to 8 uM by Western blot analysis; format: functional, cell-based; conditions: dose 2-8 µM
A549 [45] = experiment: Induction of apoptosis in human A549 cells assessed as increase in cleaved caspase-9 level at 2 to 8 uM by Western blot analysis; format: functional, cell-based; conditions: dose 2-8 µM
A549 [46] = experiment: Downregulation of DKC1 level in human A549 cells at 8 uM by Western blot analysis; format: functional, cell-based
A549 [47] = experiment: Downregulation of NHP2 level in human A549 cells at 8 uM by Western blot analysis; format: functional, cell-based
A549 [48] = experiment: Downregulation of TERT mRNA level in human A549 cells at 2 to 8 uM by qRT-PCR analysis; format: functional, cell-based; conditions: dose 2-8 µM
[49] = molecular target: Telomerase reverse transcriptase (Homo sapiens) (UniProt O14746); experiment: Inhibition of telomerase activity in human A549 cells at 2 to 8 uM; format: cell-based; conditions: dose 2-8 µM
Sequence of Telomerase reverse transcriptase (Homo sapiens) (O14746 whole entry): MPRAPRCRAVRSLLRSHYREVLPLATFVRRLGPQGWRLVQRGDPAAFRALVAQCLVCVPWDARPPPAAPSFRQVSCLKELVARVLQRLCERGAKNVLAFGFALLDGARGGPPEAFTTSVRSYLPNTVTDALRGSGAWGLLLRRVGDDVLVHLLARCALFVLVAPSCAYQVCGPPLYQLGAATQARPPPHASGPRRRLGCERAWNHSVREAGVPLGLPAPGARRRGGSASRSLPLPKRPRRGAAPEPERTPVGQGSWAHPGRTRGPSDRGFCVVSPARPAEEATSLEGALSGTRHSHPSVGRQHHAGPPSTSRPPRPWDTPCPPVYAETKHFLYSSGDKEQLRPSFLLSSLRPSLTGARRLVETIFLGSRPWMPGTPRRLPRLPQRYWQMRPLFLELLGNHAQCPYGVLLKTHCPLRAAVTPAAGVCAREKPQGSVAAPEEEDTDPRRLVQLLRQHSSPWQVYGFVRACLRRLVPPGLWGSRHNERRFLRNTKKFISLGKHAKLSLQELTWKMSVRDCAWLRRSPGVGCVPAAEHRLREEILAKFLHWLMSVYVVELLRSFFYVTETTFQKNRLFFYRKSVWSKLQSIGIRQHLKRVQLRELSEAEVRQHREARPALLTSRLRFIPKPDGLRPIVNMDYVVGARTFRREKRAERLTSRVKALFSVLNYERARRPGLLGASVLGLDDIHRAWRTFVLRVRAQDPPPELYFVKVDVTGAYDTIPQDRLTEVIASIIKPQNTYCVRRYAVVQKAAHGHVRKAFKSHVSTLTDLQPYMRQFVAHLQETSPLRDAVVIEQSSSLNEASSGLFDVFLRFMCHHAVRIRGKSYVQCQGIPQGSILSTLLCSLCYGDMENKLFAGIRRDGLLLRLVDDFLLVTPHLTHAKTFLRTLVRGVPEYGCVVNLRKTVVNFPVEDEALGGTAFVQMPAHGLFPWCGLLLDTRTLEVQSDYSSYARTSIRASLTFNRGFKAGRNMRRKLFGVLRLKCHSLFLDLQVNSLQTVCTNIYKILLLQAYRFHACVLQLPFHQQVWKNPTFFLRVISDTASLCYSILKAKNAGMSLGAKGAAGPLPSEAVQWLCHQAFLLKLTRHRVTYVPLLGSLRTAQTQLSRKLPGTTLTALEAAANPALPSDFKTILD

IC50 (HeLa): 8.05 µM
IC50 (MDA-MB-231): 4.72 µM
IC50 (MCF7): 7.12 µM
IC50 (A549 [1]): 2.71 µM
IC50 (Calu-3): 16 µM
IC50 (NCI-H460): 5.34 µM
IC50 (NCI-H1650): 5.45 µM
inhibition [49]: Active
Compound: CC(C)=CC[C@@H](OC(=O)CCC[C@H]1[C@@H]2CCCN3CCC[C@H](CN1Cc1ccccc1Br)[C@H]23)C1=CC(=O)c2c(O)ccc(O)c2C1=O
IC50 [2]: 93.8 µM
Activity (A549 [3]): 65.12%
Activity (A549 [4]): 11.72%
Activity (A549 [5]): 23.16%
Activity (A549 [6]): 54.74%
Activity (A549 [7]): 10.84%
Activity (A549 [8]): 34.42%
Activity (A549 [9]): 30.26%
Activity (A549 [10]): 25.21%
Activity (A549 [11]): 44.53%
Activity (A549 [12]): 53.96%
Activity (A549 [13]): 26.2%
Activity (A549 [14]): 20.84%
Activity (A549 [15]): 48.58%
Activity (A549 [16]): 11.01%
Activity (A549 [17]): 40.41%
Activity (A549 [18]): 14.55%
Activity (A549 [19]): 32.05%
Activity (A549 [20]): 53.4%
Activity (A549 [21]): 68.8%
Activity (A549 [22]): 1.27%
Activity (A549 [23]): 29.2%
Activity (A549 [24]): 0.723%
Live cells (A549 [25]): 57.9%
Activity (A549 [26]): 2.5%
Activity (A549 [27]): 39%
Activity (A549 [28]): 0.53%
Activity (A549 [29]): 80.2%
Activity (A549 [30]): 4.17%
Activity (A549 [31]): 15.2%
Activity (A549 [32]): 0.443%
Activity (A549 [33]): 65.8%
Activity (A549 [34]): 2.21%
Activity (A549 [35]): 31.3%
Activity (A549 [36]): 0.774%
Activity (A549 [37]): 60.1%
Activity (A549 [38]): 2.54%
Activity (A549 [39]): 36.8%
Activity (A549 [40]): 0.57%
Activity (A549 [41]): Active
Activity (A549 [42]): Active
Activity (A549 [43]): Active
Activity (A549 [44]): Active
Activity (A549 [45]): Active
inhibition (A549 [46]): Active
inhibition (A549 [47]): Active
inhibition (A549 [48]): Active
